In the experiment the target is PIK3CG (human) (UniProt P48736). Description: Assessment of PIK3CG Kinase Activity.
Chain of PIK3CG (human) (P48736 whole entry, looked up): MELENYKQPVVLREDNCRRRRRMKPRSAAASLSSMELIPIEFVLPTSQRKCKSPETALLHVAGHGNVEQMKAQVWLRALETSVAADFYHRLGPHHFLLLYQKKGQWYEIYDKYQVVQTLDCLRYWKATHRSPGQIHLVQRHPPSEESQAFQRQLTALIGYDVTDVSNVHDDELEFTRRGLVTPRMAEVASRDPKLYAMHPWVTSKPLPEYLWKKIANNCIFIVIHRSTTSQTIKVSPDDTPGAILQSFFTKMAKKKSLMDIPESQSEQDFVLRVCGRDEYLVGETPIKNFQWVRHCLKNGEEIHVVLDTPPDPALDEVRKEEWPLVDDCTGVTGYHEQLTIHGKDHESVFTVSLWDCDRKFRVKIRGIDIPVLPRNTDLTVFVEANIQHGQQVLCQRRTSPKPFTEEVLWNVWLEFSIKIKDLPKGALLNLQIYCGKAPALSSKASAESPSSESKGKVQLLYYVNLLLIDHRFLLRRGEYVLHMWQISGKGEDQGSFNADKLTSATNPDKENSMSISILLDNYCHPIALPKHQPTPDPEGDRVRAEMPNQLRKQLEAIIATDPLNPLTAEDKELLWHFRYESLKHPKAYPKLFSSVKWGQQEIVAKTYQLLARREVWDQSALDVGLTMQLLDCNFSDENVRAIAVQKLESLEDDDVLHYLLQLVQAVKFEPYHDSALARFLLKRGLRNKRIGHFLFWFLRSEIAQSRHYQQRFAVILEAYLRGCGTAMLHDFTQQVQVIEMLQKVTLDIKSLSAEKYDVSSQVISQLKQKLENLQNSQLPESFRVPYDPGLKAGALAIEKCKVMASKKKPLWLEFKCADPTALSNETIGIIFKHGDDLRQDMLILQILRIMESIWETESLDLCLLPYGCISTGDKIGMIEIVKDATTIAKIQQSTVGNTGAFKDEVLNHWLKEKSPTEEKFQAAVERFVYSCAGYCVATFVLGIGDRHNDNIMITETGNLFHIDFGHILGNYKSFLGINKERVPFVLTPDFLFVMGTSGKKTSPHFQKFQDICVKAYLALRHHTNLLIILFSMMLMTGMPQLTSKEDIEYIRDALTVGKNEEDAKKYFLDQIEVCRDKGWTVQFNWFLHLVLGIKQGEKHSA

In general, IC50 refers to the concentration that inhibits the measured activity by half. The low end stands for higher potency, the high end for lower potency. In turn, `COCc1nn(-c2ccc(C(=O)NC3CCN(C)CC3)cc2Cl)c2c1CCc1nc(NC(C)=O)sc1-2` registered an IC50 of less than 0.8 µM.

The compound `CC(=O)Nc1nc2c(s1)-c1c(cnn1-c1ccc(C(=O)N3CCC(NC(=O)c4ccccc4)CC3)cc1)CC2` came in with an IC50 of less than 0.8 µM.

In turn, `CC(=O)Nc1nc2c(s1)-c1c(cnn1C(C)C)CC2` had an IC50 of less than 0.8 µM.

Regarding `CC(=O)Nc1nc2c(s1)-c1c(c(C(C)C)nn1-c1ccc(C(=O)NCc3ccncc3)cc1Cl)CC2`, the IC50 is less than 0.8 µM.

For `CC(=O)Nc1nc2c(s1)-c1c(c(C(C)C)nn1-c1ccccc1Br)CC2`, the IC50 is less than 0.8 µM.

Regarding `CN(C)C(=O)Nc1nc2c(s1)-c1c(cnn1-c1ccccc1)C2`, the IC50 is less than 0.8 µM.

In turn, `CC(=O)Nc1nc2c(s1)-c1c(cnn1-c1cccc(C(F)(F)F)c1)CC2` gave an IC50 of less than 0.8 µM.

As to `CC(=O)Nc1nc2c(s1)-c1c(cnn1-c1ccc(C(=O)N3CCC(N4CCCS4(=O)=O)CC3)cc1)CC2`, the IC50 is less than 0.8 µM.

In turn, `CC(=O)Nc1nc2c(s1)-c1c(cnn1-c1cccc(C)c1C)CC2` came in with an IC50 of less than 0.8 µM.

`COc1ccccc1-n1nc(-c2ccco2)c2c1-c1sc(NC(C)=O)nc1CC2` had an IC50 of less than 0.8 µM.

As for `CC(=O)Nc1nc2c(s1)-c1c(cnn1-c1ccc3ncsc3c1)CC2`, the IC50 is less than 0.8 µM.

Consider `CC(=O)Nc1nc2c(s1)-c1c(cnn1CCc1ccccc1)CC2`, for which the IC50 was less than 0.8 µM.

Take `CC(=O)Nc1nc2c(s1)-c1c(c(C(=O)NCCO)nn1-c1ccccc1Cl)CC2`: the IC50 is less than 0.8 µM.

Compound `CC(=O)Nc1nc2c(s1)-c1c(cnn1-c1ccc(C(=O)N3CCC(N4CCOCC4)CC3)cc1Cl)CC2` returned an IC50 of less than 0.8 µM.

`CC(=O)Nc1nc2c(s1)-c1c(c(-c3cn(C)cn3)nn1-c1ccccc1C(F)(F)F)CC2` came in with an IC50 of less than 0.8 µM.

Compound `CN(C)C(=O)Nc1nc2c(s1)-c1c(cnn1-c1ccccc1Cl)C2` returned an IC50 of less than 0.8 µM.

Turning to `CN(C)CCCC(=O)Nc1nc2c(s1)-c1nc(-c3ccccc3)ncc1CC2`, the IC50 was less than 0.8 µM.

The compound `O=C(CCN1CCCCC1)Nc1nc2c(s1)-c1c(cnn1-c1ccccc1)CC2` returned an IC50 of less than 0.8 µM.

As to `CC(=O)Nc1nc2c(s1)-c1nc(-c3ccccc3C)ncc1CC2`, the IC50 is less than 0.8 µM.

As for `CC(=O)Nc1nc2c(s1)-c1c(cnn1-c1ccc(C(=O)NCCN3CCNC3=O)cc1)CC2`, the IC50 was less than 0.8 µM.

As to `CC(=O)Nc1nc2c(s1)-c1c(cnn1-c1ccc(C(=O)N(C)CC(=O)N(C)C)cc1)CC2`, the IC50 was less than 0.8 µM.

The compound `COc1cc(-n2ncc3c2-c2sc(NC(C)=O)nc2CC3)nc(OC)n1` yielded an IC50 of less than 0.8 µM.

In the case of `CC(=O)Nc1nc2c(s1)-c1c(cnn1-c1ccc(C(=O)NCCCn3ccnc3)cc1)CC2`, the IC50 was less than 0.8 µM.

`O=C(NCCn1ccnc1)Nc1nc2c(s1)-c1c(cnn1-c1ccccc1Cl)C2` gave an IC50 of less than 0.8 µM.

In turn, `CC(=O)Nc1nc2c(s1)-c1c(c(-c3cn(C)cn3)nn1-c1ccccc1)CC2` gave an IC50 of less than 0.8 µM.

`CC(=O)Nc1nc2c(s1)-c1c(cnn1-c1ccc(Cl)cc1)CC2` registered an IC50 of less than 0.8 µM.

Compound `CCN(CC)CC1CCCCN1C(=O)Cc1ccc(-n2ncc3c2-c2sc(NC(C)=O)nc2CC3)cc1` (centres undefined) had an IC50 of less than 0.8 µM.

Regarding `CC(=O)Nc1nc2c(s1)-c1c(cnn1C(=O)c1ccccc1Cl)CC2`, the IC50 is less than 0.8 µM.

In turn, `CC(=O)Nc1nc2c(s1)-c1c(cnn1-c1cccc(Cl)c1)CC2` showed an IC50 of less than 0.8 µM.

`CNC(=O)Nc1nc2c(s1)-c1c(cnn1-c1ccccc1)CC2` yielded an IC50 of less than 0.8 µM.

`COc1cc(OC)cc(-c2ncc3c(n2)-c2sc(NC(C)=O)nc2CC3)c1` showed an IC50 of less than 0.8 µM.

Turning to `CC(=O)NCCCC[C@H](NC(=O)c1ccc(-n2ncc3c2-c2sc(NC(C)=O)nc2CC3)c(Cl)c1)C(N)=O`, the IC50 is less than 0.8 µM.

The compound `CC(=O)Nc1nc2c(s1)-c1c(cnn1-c1ccc(C#N)cc1)CC2` displayed an IC50 of less than 0.8 µM.

With `CC(=O)Nc1nc2c(s1)-c1c(cnn1-c1ccccc1)C2`, the IC50 was less than 0.8 µM.

Consider `CC(=O)Nc1nc2c(s1)-c1c(c(N)nn1-c1ccccc1)CC2`, for which the half-maximal inhibitory concentration (IC50) was less than 0.8 µM.

The compound `CN1CCN(C(=O)Nc2nc3c(s2)-c2c(cnn2-c2ccccc2)C3)CC1` showed an IC50 of less than 0.8 µM.

The compound `CC(=O)Nc1nc2c(s1)-c1c(cnn1-c1ccc(CC(=O)N[C@@H]3CCOC3=O)cc1)CC2` gave an IC50 of less than 0.8 µM.

For the compound `CC(=O)Nc1nc2c(s1)-c1c(cnn1-c1ccc(CC(=O)N3CCCC(O)C3)cc1)CC2` (centres undefined), the IC50 was less than 0.8 µM.

For the compound `CC(=O)Nc1nc2c(s1)-c1c(cnn1C(=O)C(C)C)CC2`, the IC50 was less than 0.8 µM.

For `CC(=O)Nc1nc2c(s1)-c1nn(-c3ccccc3)c(-c3cn(C)cn3)c1CC2`, the IC50 was less than 0.8 µM.

For `CC(=O)Nc1nc2c(s1)-c1c(cnn1-c1cccc(Cl)c1)C2`, the IC50 was less than 0.8 µM.

Take `CC(=O)Nc1nc2c(s1)-c1nc(-c3ccccc3Cl)nc(O)c1CC2`: the IC50 was less than 0.8 µM.

In the case of `CC(=O)Nc1nc2c(s1)-c1c(cnn1-c1ccc(CC(=O)NCCN3CCCC3=O)cc1)CC2`, the IC50 is less than 0.8 µM.

In turn, `CC(=O)Nc1nc2c(s1)-c1c(cnn1-c1ccc(C(=O)N3CCC(N4CCNC4=O)CC3)cc1)CC2` returned an IC50 of less than 0.8 µM.

`CC(=O)Nc1nc2c(s1)-c1c(cnn1-c1ccc(C(=O)N[C@H]3CC[C@@H](N4CCC(C)(C)CC4)CC3)cc1)CC2` displayed an IC50 of less than 0.8 µM.

For the compound `CC(=O)Nc1nc2c(s1)-c1c(cnn1-c1ccc(C(=O)N3CCN(CCO)CC3)cc1)CC2`, the IC50 is less than 0.8 µM.

As to `CC(=O)Nc1nc2c(s1)-c1nc(N(CCN(C)C)C(C)=O)ncc1CC2`, the IC50 was less than 0.8 µM.

Regarding `CC(=O)Nc1nc2c(s1)-c1c(c(-c3ccco3)nn1-c1ccccc1C(F)(F)F)CC2`, the IC50 was less than 0.8 µM.

In turn, `CC(=O)Nc1nc2c(s1)-c1nc(-c3ccccc3Cl)ncc1CC2` showed an IC50 of less than 0.8 µM.

In turn, `CC(=O)Nc1nc2c(s1)-c1c(cnn1-c1ccc(C(=O)N3CCC(CO)CC3)cc1)CC2` registered an IC50 of less than 0.8 µM.

Compound `CC(=O)Nc1nc2c(s1)-c1nc(C(C)C)nc(O)c1CC2` displayed an IC50 of less than 0.8 µM.

Regarding `CC(=O)Nc1nc2c(s1)-c1c(cnn1-c1ccc(S(=O)(=O)O)cc1)CC2`, the IC50 is less than 0.8 µM.

`CCn1ncc2c1-c1sc(NC(C)=O)nc1CC2` returned an IC50 of less than 0.8 µM.

`NC(=O)Nc1nc2c(s1)-c1c(cnn1-c1ccccc1)C2`: the IC50 was less than 0.8 µM.

The compound `CN(C)C(=O)Nc1nc2c(s1)-c1c(cnn1-c1ccccc1)CC2` returned an IC50 of less than 0.8 µM.

For the compound `Nc1ncc2c(n1)-c1sc(N)nc1CC2`, the IC50 is less than 0.8 µM.

The compound `CC(=O)Nc1nc2c(s1)-c1nc(-c3ccccc3)ncc1CC2` registered an IC50 of less than 0.8 µM.

The compound `CC(=O)Nc1nc2c(s1)-c1c(cnn1-c1ccc(C(=O)N[C@H]3CC[C@H](N4CCCCC4)CC3)cc1)CC2` registered an IC50 of less than 0.8 µM.

Compound `CC(=O)Nc1nc2c(s1)-c1c(cnn1-c1cccc(F)c1)CC2` came in with an IC50 of less than 0.8 µM.

As for `CC(=O)Nc1nc2c(s1)-c1c(cnn1-c1ccccc1Cl)C2`, the IC50 is less than 0.8 µM.

`CC(=O)Nc1nc2c(s1)-c1c(cnn1-c1ccc(C(=O)N3CCCCC3CO)cc1)CC2` (centres undefined) yielded an IC50 of less than 0.8 µM.

Turning to `CC(=O)Nc1nc2c(s1)-c1c(c([C@H]3CCCO3)nn1-c1ccc(C(=O)N[C@H]3CC[C@@H](N4CCCC4)CC3)cc1Cl)CC2`, the IC50 was less than 0.8 µM.

The compound `CCN(CC)C(=O)C1CCCCN1C(=O)c1ccc(-n2ncc3c2-c2sc(NC(C)=O)nc2CC3)cc1` (centres undefined) registered an IC50 of less than 0.8 µM.

Compound `CC(=O)Nc1nc2c(s1)-c1nc(N3CCC4(CN(C)C4)C3)ncc1CC2` returned an IC50 of less than 0.8 µM.

As for `CC(=O)Nc1nc2c(s1)-c1nc(C(C)C)ncc1CC2`, the IC50 was less than 0.8 µM.

The compound `CC(=O)Nc1nc2c(s1)-c1nn(-c3ccccc3Cl)c(-c3ccoc3)c1CC2` registered an IC50 of less than 0.8 µM.

As to `CC(=O)Nc1nc2c(s1)-c1c(c([C@H]3CCCO3)nn1-c1ccc(C(=O)N(C)Cc3ccncc3)cc1Cl)CC2`, the IC50 is less than 0.8 µM.

The compound `CC(=O)Nc1nc2c(s1)-c1c(cnn1-c1ccccc1C(C)C)C2` showed an IC50 of less than 0.8 µM.

`CC(=O)Nc1nc2c(s1)-c1c(cnn1-c1cccc(Br)c1)CC2` displayed an IC50 of less than 0.8 µM.

On to `O=C(Nc1nc2c(s1)-c1c(cnn1-c1ccccc1)C2)N1CCCCC1`, for which the IC50 is less than 0.8 µM.

The compound `CN(C)CCNC(=O)Nc1nc2c(s1)-c1c(cnn1-c1ccccc1Cl)C2` gave an IC50 of less than 0.8 µM.

`CC(=O)Nc1nc2c(s1)-c1c(cnn1-c1ccc(C(=O)NCc3ccccn3)cc1)CC2` yielded an IC50 of less than 0.8 µM.

`C=CCNC(=O)c1ccc(-n2ncc3c2-c2sc(NC(C)=O)nc2CC3)cc1` returned an IC50 of less than 0.8 µM.

Turning to `CC(=O)Nc1nc2c(s1)-c1c(c(-c3ccccn3)nn1-c1ccccc1C(F)(F)F)CC2`, the IC50 was less than 0.8 µM.

Turning to `CC(=O)Nc1nc2c(s1)-c1c(cnn1-c1ccc(C(=O)N[C@H]3CC[C@@H](N4CCN(C)CC4)CC3)cc1)CC2`, the IC50 was less than 0.8 µM.

With `CC(=O)Nc1nc2c(s1)-c1c(cnn1-c1ccc(C(=O)N[C@H]3CC[C@H](N4CCN(C)CC4)CC3)cc1)CC2`, the IC50 was less than 0.8 µM.

Compound `CC(=O)Nc1nc2c(s1)-c1c(cnn1C)CC2` showed an IC50 of less than 0.8 µM.

Consider `CC(=O)Nc1nc2c(s1)-c1c(cnn1-c1cccc(C)c1)C2`, for which the IC50 was less than 0.8 µM.

The compound `CC(=O)Nc1nc2c(s1)-c1c(c(-c3ccccn3)nn1-c1ccccc1Br)CC2` registered an IC50 of less than 0.8 µM.

On to `CC(=O)Nc1nc2c(s1)-c1c(cnn1-c1ccc(C(=O)NC(C)(C)CN3CCOCC3)cc1)CC2`, for which the IC50 is less than 0.8 µM.

For the compound `CC(=O)Nc1nc2c(s1)-c1c(cnn1-c1ccc(C(=O)N3C[C@@H](C)O[C@@H](C)C3)cc1)CC2`, the IC50 was less than 0.8 µM.

The compound `CC(=O)Nc1nc2c(s1)-c1c(cnn1-c1ccc(C(=O)N3CCC[C@H]3C(=O)O)cc1)CC2` returned an IC50 of less than 0.8 µM.

Compound `CC(=O)Nc1nc2c(s1)-c1c(cnn1-c1ccccc1F)C2` gave an IC50 of less than 0.8 µM.

In turn, `CC(=O)Nc1nc2c(s1)-c1c(cnn1-c1ccc(C(=O)N[C@@H](CCC(=O)O)C(N)=O)cc1Cl)CC2` showed an IC50 of less than 0.8 µM.

`CC(=O)Nc1nc2c(s1)-c1c(cnn1-c1ccccc1C(F)(F)F)CC2` showed an IC50 of less than 0.8 µM.

Turning to `COc1ccccc1-c1ncc2c(n1)-c1sc(NC(C)=O)nc1CC2`, the IC50 was less than 0.8 µM.

In turn, `CN(C)C(=O)Nc1nc2c(s1)-c1nc(-c3ccccc3)ncc1CC2` displayed an IC50 of less than 0.8 µM.

For `CC(=O)Nc1nc2c(s1)-c1c(cnn1-c1ccc(C(=O)N[C@H]3CC[C@@H](N4CCOCC4)CC3)cc1)CC2`, the IC50 is less than 0.8 µM.

Regarding `CC(=O)Nc1nc2c(s1)-c1c(c(C(=O)NCCO)nn1-c1ccccc1)CC2`, the IC50 is less than 0.8 µM.

These data come from the Kinase Knowledgebase extract (Sharma et al. 2016).
